Measured values reported in ChEMBL document CHEMBL3421609, “Sandensone A, a novel sesquiterpenoid from the Formosan soft coral Sinularia sandensis” (2015).
Active and inactive are the calls of the source. The rule behind the calls is not given here.

Assays:
[1] = system: P388; assay: Cytotoxicity against mouse P388 cells by MTT assay; format: functional; settings: read-out: ED50 (the source's name)
[2] = system: HT-29; assay: Cytotoxicity against human HT-29 cells by MTT assay; format: functional; settings: read-out: ED50 (the source's name)
[3] = system: A549; assay: Cytotoxicity against human A549 cells by MTT assay; format: functional; settings: read-out: ED50 (the source's name)
[4] = system: Human betaherpesvirus 5; assay: Antiviral activity against human cytomegalovirus infected in HEL cells assessed as reduction in virus replication at 1 ug/ml; format: functional, organism-based
[5] = system: Human betaherpesvirus 5; assay: Antiviral activity against human cytomegalovirus infected in HEL cells assessed as reduction in virus replication; format: functional; settings: Human betaherpesvirus 5, HEL; read-out: ED50 (the source's name)

SMILES | EC50 [1] | EC50 [2] | EC50 [3] | Activity [4] | EC50 [5]
CO[C@H](C(=O)[C@@H](O)[C@@H](C)O)[C@@H]1Cc2cc3cc(O[C@H]4C[C@@H](O[C@@H]5C[C@@H](O)[C@H](O)[C@@H](C)O5)[C@H](O)[C@@H](C)O4)c(C)c(O)c3c(O)c2C(=O)[C@H]1O[C@H]1C[C@@H](O[C@@H]2C[C@@H](O)[C@@H](O[C@@H]3C[C@](C)(O)[C@H](O)[C@@H](C)O3)[C@@H](C)O2)[C@H](O)[C@@H](C)O1 [PLICAMYCIN] | 50 nM | 70 nM | 60 nM |  | 
C=C/C(C)=C/C/C=C(\C)[C@H]1C(=O)C=C(C)[C@@H]1O | 22000 nM | 38000 nM | > 50000 nM | inactive | > 50 µg/mL
